The text below walks through data of article doi:10.1101/362293v1 (biorxiv, 2018).

In general, Kd refers to the equilibrium constant for the complex coming apart. Higher therefore signals a looser complex. The term Ki denotes the equilibrium dissociation constant of an inhibitor or competing ligand from its target.

Assay [1] addresses T1, CobB (Escherichia coli, UniProt P75960, E21A).
T1 sequence (P75960 1-279 E21A): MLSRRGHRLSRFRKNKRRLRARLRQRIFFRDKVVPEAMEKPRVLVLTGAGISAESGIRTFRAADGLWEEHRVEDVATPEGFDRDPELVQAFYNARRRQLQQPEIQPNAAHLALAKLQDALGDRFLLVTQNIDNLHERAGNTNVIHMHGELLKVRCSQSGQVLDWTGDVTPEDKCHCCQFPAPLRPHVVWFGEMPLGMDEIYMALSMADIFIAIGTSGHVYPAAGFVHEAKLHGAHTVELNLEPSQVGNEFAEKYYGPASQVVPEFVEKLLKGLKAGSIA
Briefly: isothermal titration calorimetry. It counts as binding. In general terms: Isothermal titration calorimetry measures the heat released or taken up as one component is titrated into another.

Assay [2] has as its target T2, CobB (Escherichia coli, UniProt P75960).
T2 sequence (P75960 1-279): T1 sequence (P75960 1-279 E21A) with A21E
Put plainly: isothermal titration calorimetry. The class given is binding.

Assay [3] has as its target T3, CobB (Escherichia coli, UniProt P75960, R8A).
T3 sequence (P75960 1-279 R8A): T1 sequence (P75960 1-279 E21A) with R8A, A21E
Put plainly: isothermal titration calorimetry. The class given is binding.

Assay [4] addresses T4, CobB (Escherichia coli, UniProt P75960, R17A).
T4 sequence (P75960 1-279 R17A): T1 sequence (P75960 1-279 E21A) with R17A, A21E
Put plainly: isothermal titration calorimetry. The class given is binding.

For assay [5], the target named is T5, S. typhimurium CobB; CobB^S. typhimurium (Salmonella enterica, UniProt P0A2F2).
T5 sequence (P0A2F2 1-273): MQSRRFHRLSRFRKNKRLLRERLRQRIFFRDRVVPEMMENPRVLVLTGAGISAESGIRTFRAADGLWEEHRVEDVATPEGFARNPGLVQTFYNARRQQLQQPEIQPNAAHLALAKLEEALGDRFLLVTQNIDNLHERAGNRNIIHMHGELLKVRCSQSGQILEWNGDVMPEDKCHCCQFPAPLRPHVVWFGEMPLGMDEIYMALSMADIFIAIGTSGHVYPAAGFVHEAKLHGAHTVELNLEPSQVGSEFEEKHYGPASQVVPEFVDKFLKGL
Put plainly: affinity measurement, method not given. The class given is binding.

Assay [6] has as its target T2, CobB. Put plainly: deacetylation of an acetylated peptide, HPLC. The class given is biochemical.

The structures appear in SMILES notation. Where a chain is given by its changes, count along the chain named.

For `Nc1nc2c(ncn2[C@@H]2O[C@@H]3CO[P@](=O)(O)O[C@H]4[C@@H](O)[C@H](n5cnc6c(=O)[nH]c(N)nc65)O[C@@H]4CO[P@](=O)(O)O[C@H]3[C@H]2O)c(=O)[nH]1` [c-di-GMP], the Kd at CobB [1] was 320 µM; at CobB [2], 21.6 µM; at CobB [3] it was 1800 µM; on CobB [4], 1600 µM; in assay [5] it was 15.5 µM. The compound further yielded a Ki on CobB [6] of 32.3 µM.
